{"source": "patent US20100204203A1", "about": "“Chemical Compounds 637: Pyridopyrimidinediones as PDE4 Inhibitors” (priority 2007, published 2010)"}
{"target": "recombinant Human Phosphodiesterase B2 (PDE4B2) (Homo sapiens, UniProt Q07343)", "sequence (Q07343 1-564 isoform Q07343-2)": "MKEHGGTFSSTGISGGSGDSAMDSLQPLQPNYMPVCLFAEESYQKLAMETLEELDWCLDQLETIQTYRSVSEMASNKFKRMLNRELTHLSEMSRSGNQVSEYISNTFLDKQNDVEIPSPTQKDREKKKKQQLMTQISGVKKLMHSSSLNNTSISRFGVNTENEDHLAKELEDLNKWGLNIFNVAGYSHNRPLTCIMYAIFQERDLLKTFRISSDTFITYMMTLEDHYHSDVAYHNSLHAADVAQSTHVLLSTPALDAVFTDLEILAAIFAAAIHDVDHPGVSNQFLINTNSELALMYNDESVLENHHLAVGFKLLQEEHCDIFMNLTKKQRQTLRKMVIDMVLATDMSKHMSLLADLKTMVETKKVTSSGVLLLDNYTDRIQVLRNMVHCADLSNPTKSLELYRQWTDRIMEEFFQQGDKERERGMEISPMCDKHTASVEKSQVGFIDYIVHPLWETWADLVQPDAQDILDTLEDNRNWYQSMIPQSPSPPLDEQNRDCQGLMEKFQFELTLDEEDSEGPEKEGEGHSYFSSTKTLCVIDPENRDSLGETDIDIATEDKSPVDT", "assay": "Human Phosphodiesterase B2 Radiometric Assay (yttrium silicate SPA beads, [3H]cyclic AMP)", "assay_type": "biochemical", "conditions": "recombinant human PDE4B2, radiometric SPA assay, 8 nM [3H]cyclic AMP; read-out: PDE4B2 pIC50 (converted)", "how_it_was_run": "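Compounds were preincubated 30 min at 30 °C with 0.1 mg/mL PDE4B2 in 50 mM HEPES pH 7.5, 8.3 mM MgCl2, 1.7 mM EGTA, 0.01% Brij 35. Then 8 nM [3H]cAMP was added for 20 min, stopped with yttrium silicate SPA beads plus 18 mM ZnSO4 capturing product 5′AMP; pIC50 by curve fitting.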", "units": {"IC50": "nM"}}
{"smiles": "CN(C)CC(=O)N[C@H]1CC[C@@H](n2c(=O)c3cc(F)cnc3n(-c3cccc(-c4ccc(CN5CCCN(C)CC5)cc4)c3)c2=O)CC1", "note": "[Example 287, N-{cis-4-[6-fluoro-1-{4′-[(4-methyl-1,4-diazepan-1-yl)methyl]biphenyl-3-yl}-2,4-dioxo-1,4-dihydropyrido[2,3-d]pyrimidin-3(2H)-yl]cyclohexyl}-N^2,N^2-dimethylglycinamide]", "IC50": 0.631}
{"smiles": "O=C(N[C@H]1CC[C@@H](n2c(=O)c3cc(F)cnc3n(-c3cccc(-c4ccc(CN5CCC(N6CCCCC6)CC5)cc4)c3)c2=O)CC1)c1cn2c(n1)CCCC2", "note": "[Example 223, N-{cis-4-[1-[4′-(1,4′-bipiperidin-1′-ylmethyl)biphenyl-3-yl]-6-fluoro-2,4-dioxo-1,4-dihydropyrido[2,3-d]pyrimidin-3(2H)-yl]cyclohexyl}-5,6,7,8-tetrahydroimidazo[1,2-a]pyridine-2-carboxamide]", "IC50": 0.01}
{"smiles": "O=Cc1ccc(-c2cccc(-n3c(=O)n([C@H]4CC[C@@H](NC(=O)c5cn6cc(F)ccc6n5)CC4)c(=O)c4cc(F)cnc43)c2)cc1", "note": "[Example 24, 6-fluoro-N-{cis-4-[6-fluoro-1-(4′-formylbiphenyl-3-yl)-2,4-dioxo-1,4-dihydropyrido[2,3-d]pyrimidin-3(2H)-yl]cyclohexyl}imidazo[1,2-a]pyridine-2-carboxamide.]", "IC50": 0.00794}
{"smiles": "Cc1cc(C(=O)N[C@H]2CC[C@@H](n3c(=O)c4cc(F)cnc4n(-c4cccc(-c5ccc(O)cc5CN(C)C)c4)c3=O)CC2)nn1C", "note": "[Example 348, N-{cis-4-[1-{2′-[(dimethylamino)methyl]-4′-hydroxybiphenyl-3-yl}-6-fluoro-2,4-dioxo-1,4-dihydropyrido[2,3-d]pyrimidin-3(2H)-yl]cyclohexyl}-1,5-dimethyl-1H-pyrazole-3-carboxamide]", "IC50": 0.0251}
{"smiles": "O=C(N[C@H]1CC[C@@H](n2c(=O)c3cc(F)cnc3n(-c3cccc(-c4cccc(CN5CCCCC5)c4)c3)c2=O)CC1)c1cn2cc(F)ccc2n1", "note": "[Example 14, 6-fluoro-N-{cis-4-[6-fluoro-2,4-dioxo-1-[3′-(piperidin-1-ylmethyl)biphenyl-3-yl]-1,4-dihydropyrido[2,3-d]pyrimidin-3(2H)-yl]cyclohexyl}imidazo[1,2-a]pyridine-2-carboxamide.]", "IC50": 0.2}
{"smiles": "CC(C)(C)OC(=O)N[C@H]1CC[C@@H](n2c(=O)c3cc(F)cnc3n(-c3cccc(-c4ccccc4CN4CCOCC4)c3)c2=O)CC1", "note": "[Example 45]", "IC50": 0.316}
{"smiles": "Cc1cc(CN[C@H]2CC[C@@H](n3c(=O)c4cc(F)cnc4n(-c4cccc(-c5ccc(O)cc5CN5CCOCC5)c4)c3=O)CC2)nn1C", "note": "[Example 251, 3-(cis-4-{[(1,5-Dimethyl-1H-pyrazol-3-yl)methyl]amino}cyclohexyl)-6-fluoro-1-[4′-hydroxy-2′-(morpholin-4-ylmethyl)biphenyl-3-yl]pyrido[2,3-d]pyrimidine-2,4(1H,3H)-dione]", "IC50": 0.1}
{"smiles": "O=c1c2cc(F)cnc2n(-c2cccc(-c3ccc(O)cc3CN3CCOCC3)c2)c(=O)n1[C@H]1CC[C@@H](NCc2cn3cc(F)ccc3n2)CC1", "note": "[Example 246]", "IC50": 0.02}
{"smiles": "CC(=O)N[C@H]1CC[C@@H](n2c(=O)c3cc(F)cnc3n(-c3cccc(-c4ccccc4)c3)c2=O)CC1", "note": "[Example 65, N-[cis-4-(1-biphenyl-3-yl-6-fluoro-2,4-dioxo-1,4-dihydropyrido[2,3-d]pyrimidin-3(2H)-yl)cyclohexyl]acetamide]", "IC50": 0.398}
{"smiles": "O=C(N[C@H]1CC[C@@H](n2c(=O)c3cc(F)cnc3n(-c3cccc(-c4ccccc4CN4CCOCC4)c3)c2=O)CC1)c1ccccc1O", "note": "[Example 63, N-{cis-4-[6-fluoro-1-[2′-(morpholin-4-ylmethyl)biphenyl-3-yl]-2,4-dioxo-1,4-dihydropyrido[2,3-d]pyrimidin-3(2H)-yl]cyclohexyl}-2-hydroxybenzamide]", "IC50": 0.0794}
{"smiles": "O=C(N[C@H]1CC[C@@H](n2c(=O)c3cc(F)cnc3n(-c3cccc(-c4ccc(O)cc4CN4CCOCC4)c3)c2=O)CC1)c1cn2cc(F)ccc2n1", "note": "[Example 103, 6-fluoro-N-{cis-4-[6-fluoro-1-[4′-hydroxy-2′-(morpholin-4-ylmethyl)biphenyl-3-yl]-2,4-dioxo-1,4-dihydropyrido[2,3-d]pyrimidin-3(2H)-yl]cyclohexyl}imidazo[1,2-a]pyridine-2-carboxamide]", "IC50": 0.00158}
{"smiles": "Cc1cc(C(=O)N[C@H]2CC[C@@H](n3c(=O)c4cc(F)cnc4n(-c4cccc(-c5ccc(CN6CCC(N7CCCC7)CC6)cc5)c4)c3=O)CC2)nn1C", "note": "[Example 118, N-{cis-4-[6-fluoro-2,4-dioxo-1-{4′-[(4-pyrrolidin-1-ylpiperidin-1-yl)methyl]biphenyl-3-yl}-1,4-dihydropyrido[2,3-d]pyrimidin-3(2H)-yl]cyclohexyl}-1,5-dimethyl-1H-pyrazole-3-carboxamide]", "IC50": 0.0251}
{"smiles": "CN(Cc1ccccc1)C(=O)c1cccc(-n2c(=O)n([C@H]3CC[C@@H](NC(=O)c4cn5cc(F)ccc5n4)CC3)c(=O)c3cc(F)cnc32)c1", "note": "[Example 90, N-{cis-4-[1-(3-{[benzyl(methyl)amino]carbonyl}phenyl)-6-fluoro-2,4-dioxo-1,4-dihydropyrido[2,3-d]pyrimidin-3(2H)-yl]cyclohexyl}-6-fluoroimidazo[1,2-a]pyridine-2-carboxamide]", "IC50": 1.26}
{"smiles": "O=C(N[C@H]1CC[C@@H](n2c(=O)c3cc(F)cnc3n(-c3cccc(-c4ccc(OCCN5CCCC5)cc4)c3)c2=O)CC1)c1cn2cc(F)ccc2n1", "note": "[Example 79, 6-fluoro-N-{cis-4-[6-fluoro-2,4-dioxo-1-[4′-(2-pyrrolidin-1-ylethoxy)biphenyl-3-yl]-1,4-dihydropyrido[2,3-d]pyrimidin-3(2H)-yl]cyclohexyl}imidazo[1,2-a]pyridine-2-carboxamide]", "IC50": 0.02}
{"smiles": "NC1(C(=O)N[C@H]2CC[C@@H](n3c(=O)c4cc(F)cnc4n(-c4cccc(-c5ccccc5)c4)c3=O)CC2)CC1", "note": "[Example 344, 1-amino-N-[cis-4-(1-biphenyl-3-yl-6-fluoro-2,4-dioxo-1,4-dihydropyrido[2,3-d]pyrimidin-3(2H)-yl)cyclohexyl]cyclopropanecarboxamide]", "IC50": 0.398}
{"smiles": "Cn1cc(CN[C@H]2CC[C@@H](n3c(=O)c4cc(F)cnc4n(-c4cccc(-c5ccc(O)cc5CN5CCOCC5)c4)c3=O)CC2)c(-c2ccccc2)n1", "note": "[Example 247, 6-Fluoro-1-[4′-hydroxy-2′-(morpholin-4-ylmethyl)biphenyl-3-yl]-3-(cis-4-{[(1-methyl-3-phenyl-1H-pyrazol-4-yl)methyl]amino}cyclohexyl)pyrido[2,3-d]pyrimidine-2,4(1H,3H)-dione]", "IC50": 0.2}
{"smiles": "CN(C)Cc1ccc(-c2cccc(-n3c(=O)n([C@H]4CC[C@@H](NC(=O)c5cn6cc(F)ccc6n5)CC4)c(=O)c4cc(F)cnc43)c2)c(O)c1", "note": "[Example 94, N-{cis-4-[1-{4′-[(dimethylamino)methyl]-2′-hydroxybiphenyl-3-yl}-6-fluoro-2,4-dioxo-1,4-dihydropyrido[2,3-d]pyrimidin-3(2H)-yl]cyclohexyl}-6-fluoroimidazo[1,2-a]pyridine-2-carboxamide]", "IC50": 0.316}
{"smiles": "O=C(N[C@H]1CC[C@@H](n2c(=O)c3cc(F)cnc3n(-c3ccc4c(cnn4Cc4ccccc4)c3)c2=O)CC1)c1cn2cc(F)ccc2n1", "note": "[Example 39, N-{cis-4-[1-(1-benzyl-1H-indazol-5-yl)-6-fluoro-2,4-dioxo-1,4-dihydropyrido[2,3-d]pyrimidin-3 (2H)-yl]cyclohexyl}-6-fluoroimidazo[1,2-a]pyridine-2-carboxamide]", "IC50": 10}
{"smiles": "O=C(N[C@H]1CC[C@@H](n2c(=O)c3cc(F)cnc3n(-c3cccc(-c4ccc(CN5CCSCC5)cc4)c3)c2=O)CC1)c1cn2c(n1)CCCC2", "note": "[Example 135, N-{cis-4-[6-fluoro-2,4-dioxo-1-[4′-(thiomorpholin-4-ylmethyl)biphenyl-3-yl]-1,4-dihydropyrido[2,3-d]pyrimidin-3(2H)-yl]cyclohexyl}-5,6,7,8-tetrahydroimidazo[1,2-a]pyridine-2-carboxamide]", "IC50": 0.00316}
{"smiles": "CN1CCCN(Cc2ccc(-c3cccc(-n4c(=O)n([C@H]5CC[C@@H](NC(=O)c6cc7c(o6)CCCC7=O)CC5)c(=O)c5cc(F)cnc54)c3)cc2)CC1", "note": "[Example 310, N-{cis-4-[6-fluoro-1-{4′-[(4-methyl-1,4-diazepan-1-yl)methyl]biphenyl-3-yl}-2,4-dioxo-1,4-dihydropyrido[2,3-d]pyrimidin-3(2H)-yl]cyclohexyl}-4-oxo-4,5,6,7-tetrahydro-1-benzofuran-2-carboxamide]", "IC50": 0.126}
{"smiles": "O=c1c2cc(F)cnc2n(-c2cccc(-c3ccc(O)cc3CN3CCOCC3)c2)c(=O)n1[C@H]1CC[C@@H](NCc2cc(Cl)ccc2O)CC1", "note": "[Example 250, 3-{cis-4-[(5-Chloro-2-hydroxybenzyl)amino]cyclohexyl}-6-fluoro-1-[4′-hydroxy-2′-(morpholin-4-ylmethyl)biphenyl-3-yl]pyrido[2,3-d]pyrimidine-2,4(1H,3H)-dione]", "IC50": 0.2}
{"smiles": "O=C(N[C@H]1CC[C@@H](n2c(=O)c3cc(F)cnc3n(-c3cccc(-c4ccc(CN5CCC(N6CCCCC6)CC5)cc4)c3)c2=O)CC1)c1nc2ccccc2[nH]1", "note": "[Example 298, N-{cis-4-[1-[4′-(1,4′-bipiperidin-1′-ylmethyl)biphenyl-3-yl]-6-fluoro-2,4-dioxo-1,4-dihydropyrido[2,3-d]pyrimidin-3(2R)-yl]cyclohexyl}-1H-benzimidazole-2-carboxamide]", "IC50": 0.0316}
{"smiles": "Cc1cccc(C(=O)N[C@H]2CC[C@@H](n3c(=O)c4cc(F)cnc4n(-c4cccc(-c5ccc(CN6CCN(C7CCCC7)CC6)cc5)c4)c3=O)CC2)n1", "note": "[Example 294, N-{cis-4-[1-{4′-[(4-cyclopentylpiperazin-1-yl)methyl]biphenyl-3-yl}-6-fluoro-2,4-dioxo-1,4-dihydropyrido[2,3-d]pyrimidin-3(2H)-yl]cyclohexyl}-6-methylpyridine-2-carboxamide]", "IC50": 0.0158}
